# Source: patent US8541588B2, “Sulfonamide derivatives” (Pfizer Limited, priority 2009, dated 2013)
# Biological target: T1, Nav1.7 (or SCN9A) channel; HEK cells stably transfected with hSCN9A (Homo sapiens, UniProt Q15858)
# T1 construct: expressed in transfected cells
# Assay: Nav1.7 block, PatchXpress 7000 automated whole-cell voltage clamp, estimated IC50 (EIC50)
# Assay type: cell-based
# Settings: PatchXpress platform; hSCN9A HEK cells held at V1/2 of inactivation; estimated IC50
# T1 sequence (Q15858 whole entry): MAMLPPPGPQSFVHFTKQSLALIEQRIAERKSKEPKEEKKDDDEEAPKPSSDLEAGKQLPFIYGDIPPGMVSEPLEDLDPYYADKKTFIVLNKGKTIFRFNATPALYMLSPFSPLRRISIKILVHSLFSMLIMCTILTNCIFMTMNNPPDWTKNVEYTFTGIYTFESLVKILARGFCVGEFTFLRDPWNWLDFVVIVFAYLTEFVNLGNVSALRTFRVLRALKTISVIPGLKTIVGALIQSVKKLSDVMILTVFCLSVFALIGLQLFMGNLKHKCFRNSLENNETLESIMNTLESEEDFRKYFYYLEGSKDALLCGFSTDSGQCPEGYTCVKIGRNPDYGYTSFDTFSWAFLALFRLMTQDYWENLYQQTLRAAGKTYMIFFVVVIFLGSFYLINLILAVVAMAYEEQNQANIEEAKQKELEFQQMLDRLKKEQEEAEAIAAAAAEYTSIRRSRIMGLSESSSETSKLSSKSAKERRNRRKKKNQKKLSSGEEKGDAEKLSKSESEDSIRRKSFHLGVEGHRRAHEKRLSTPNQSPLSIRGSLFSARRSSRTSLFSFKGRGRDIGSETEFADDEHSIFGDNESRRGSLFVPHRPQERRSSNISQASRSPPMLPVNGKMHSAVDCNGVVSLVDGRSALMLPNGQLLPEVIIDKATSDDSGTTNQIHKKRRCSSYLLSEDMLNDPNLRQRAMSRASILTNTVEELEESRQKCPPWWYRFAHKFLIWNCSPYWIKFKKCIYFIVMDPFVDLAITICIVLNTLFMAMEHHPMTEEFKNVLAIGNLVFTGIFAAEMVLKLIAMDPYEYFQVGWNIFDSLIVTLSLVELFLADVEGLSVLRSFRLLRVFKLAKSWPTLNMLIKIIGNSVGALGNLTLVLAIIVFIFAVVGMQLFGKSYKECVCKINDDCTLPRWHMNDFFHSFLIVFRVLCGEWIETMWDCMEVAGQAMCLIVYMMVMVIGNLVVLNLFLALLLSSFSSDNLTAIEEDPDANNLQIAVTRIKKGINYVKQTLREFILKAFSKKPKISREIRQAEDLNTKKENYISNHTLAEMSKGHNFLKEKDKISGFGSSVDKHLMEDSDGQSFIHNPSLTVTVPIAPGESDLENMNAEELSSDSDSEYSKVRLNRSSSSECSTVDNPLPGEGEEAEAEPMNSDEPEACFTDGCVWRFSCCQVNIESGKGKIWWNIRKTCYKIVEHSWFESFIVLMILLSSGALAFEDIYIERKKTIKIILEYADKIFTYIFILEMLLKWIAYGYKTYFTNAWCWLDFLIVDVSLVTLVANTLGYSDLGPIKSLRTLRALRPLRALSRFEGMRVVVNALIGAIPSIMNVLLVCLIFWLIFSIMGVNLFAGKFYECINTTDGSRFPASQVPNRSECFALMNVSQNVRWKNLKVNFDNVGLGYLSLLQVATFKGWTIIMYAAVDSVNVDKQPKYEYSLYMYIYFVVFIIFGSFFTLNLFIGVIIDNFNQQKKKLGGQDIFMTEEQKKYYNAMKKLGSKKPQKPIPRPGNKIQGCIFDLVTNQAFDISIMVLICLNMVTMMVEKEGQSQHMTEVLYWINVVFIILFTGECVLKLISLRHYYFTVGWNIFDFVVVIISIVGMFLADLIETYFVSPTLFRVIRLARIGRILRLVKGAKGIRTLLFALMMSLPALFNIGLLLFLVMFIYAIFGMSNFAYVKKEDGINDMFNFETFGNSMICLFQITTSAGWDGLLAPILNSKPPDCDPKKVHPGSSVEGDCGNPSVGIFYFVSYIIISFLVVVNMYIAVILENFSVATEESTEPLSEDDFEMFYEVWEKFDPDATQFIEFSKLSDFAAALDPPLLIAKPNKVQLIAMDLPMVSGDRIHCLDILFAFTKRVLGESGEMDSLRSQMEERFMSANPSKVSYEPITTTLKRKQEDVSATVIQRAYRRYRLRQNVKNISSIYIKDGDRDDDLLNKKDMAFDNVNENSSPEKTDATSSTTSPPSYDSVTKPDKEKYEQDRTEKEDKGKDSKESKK
row,IC50,Compound
1,90 nM,"Cn1nccc1-c1cc(F)ccc1Oc1ccc(S(=O)(=O)Nc2ncns2)cc1C#N [Example 1, 3-cyano-4-(4-fluoro-2-(1-methyl-1H-pyrazol-5-yl)phenoxy)-N-(1,2,4-thiadiazol-5-yl)benzenesulfonamide]"
2,80 nM,"Cc1nccn1-c1cc(Cl)ccc1Oc1ccc(S(=O)(=O)Nc2nccs2)cc1C#N [Example 159, 4-[4-chloro-2-(2-methyl-1H-imidazol-1-yl)phenoxy]-3-cyano-N-1,3-thiazol-2-ylbenzenesulfonamide]"
3,5740 nM,"Cc1cccc(-c2ccc(OC(F)(F)F)cc2)c1Oc1ccc(S(=O)(=O)Nc2ncns2)cc1C#N [Example 40, 3-cyano-4-{[3-methyl-4′-(trifluoromethoxy)biphenyl-2-yl]oxy}-N-1,2,4-thiadiazol-5-ylbenzenesulfonamide]"
4,4300 nM,"CN(C)c1ncc(Oc2ccc(S(=O)(=O)Nc3ncns3)cc2C#N)c(-c2ccccc2F)n1 [Example 14, 3-cyano-4-{[2-(dimethylamino)-4-(2-fluorophenyl)pyrimidin-5-yl]oxy}-N-1,2,4-thiadiazol-5-ylbenzenesulfonamide]"
5,35900 nM,"CCc1ccc(-c2ncccc2Oc2ccc(S(=O)(=O)Nc3ncns3)cc2C#N)cc1 [Example 7, 3-cyano-4-{[2-(4-ethylphenyl)pyridin-3-yl]oxy}-N-1,2,4-thiadiazol-5-ylbenzenesulfonamide]"
6,300 nM,"COC(=O)c1ccc(Oc2ccc(S(=O)(=O)Nc3ncns3)cc2C#N)c(-c2ccnn2C)c1 [Example 30, methyl 4-(4-(N-1,2,4-thiadiazol-5-ylsulfamoyl)-2-cyanophenoxy)-3-(1-methyl-1H-pyrazol-5-yl)benzoate]"
7,850 nM,"CC(C)Oc1ccc(-c2cc(Cl)ccc2Oc2ccc(S(=O)(=O)Nc3nccs3)cc2C#N)cc1 [Example 155, 4-[(5-chloro-4′-isopropoxybiphenyl-2-yl)oxy]-3-cyano-N-1,3-thiazol-2-ylbenzenesulfonamide]"
8,340 nM,"N#Cc1cc(S(=O)(=O)Nc2ncns2)ccc1Oc1cc(C(F)(F)F)nn1-c1ccc(F)cc1F [Example 58, 3-cyano-4-{[1-(2,4-difluorophenyl)-3-(trifluoromethyl)-1H-pyrazol-5-yl]oxy}-N-1,2,4-thiadiazol-5-ylbenzenesulfonamide]"
9,3760 nM,"O=S(=O)(Nc1nccs1)c1ccc(Oc2ccc(-c3cc(C(F)(F)F)n[nH]3)cc2)c(F)c1 [Example 246, 3-fluoro-N-(thiazol-2-yl)-4-(4-(3-(trifluoromethyl)-1H-pyrazol-5-yl)phenoxy)benzenesulfonamide]"

# Same assay, conditions: estimated IC50; hSCN9A HEK cells, PatchXpress platform; Examples 283-814
row,IC50,Compound
1,770 nM,"N#Cc1cc(S(=O)(=O)Nc2nccs2)ccc1Oc1ccc(Cl)cc1-n1nccn1 [Example 321, 4-[4-chloro-2-(2H-1,2,3-triazol-2-yl)phenoxy]-3-cyano-N-1,3-thiazol-2-ylbenzenesulfonamide]"
2,17 nM,"COCCn1nccc1-c1cc(Cl)ccc1Oc1ccc(S(=O)(=O)Nc2ncns2)cc1C#N [Example 562, 4-{4-chloro-2-[1-(2-methoxyethyl)-1H-pyrazol-5-yl]phenoxy}-3-cyano-N-1,2,4-thiadiazol-5-ylbenzenesulfonamide]"
3,810 nM,"Cn1ncc(F)c1-c1cc(Cl)ccc1Oc1ccc(S(=O)(=O)Nc2nccs2)cc1F [Example 307, 4-[4-Chloro-2-(4-fluoro-1-methyl-1H-pyrazol-5-yl)phenoxy]-3-fluoro-N-1,3-thiazol-2-ylbenzenesulfonamide]"
4,300 nM,"Cn1nccc1-c1cc(F)ccc1Oc1ccc(S(=O)(=O)Nc2ncc(F)s2)cc1F [Example 347, 3-fluoro-4-[4-fluoro-2-(1-methyl-1H-pyrazol-5-yl)phenoxy]-N-(5-fluoro-1,3-thiazol-2-yl)benzenesulfonamide]"
5,15 nM,"CCc1ccc(Oc2ccc(S(=O)(=O)Nc3nccs3)cc2C#N)c(-c2ccnn2C)c1 [Example 350, 3-cyano-4-[4-ethyl-2-(1-methyl-1H-pyrazol-5-yl)phenoxy]-N-1,3-thiazol-2-ylbenzenesulfonamide]"
6,17 nM,"O=S(=O)(Nc1ncns1)c1ccc(Oc2ccc(Cl)cc2-c2cn[nH]c2)c(F)c1 [Example 737, 4-[4-chloro-2-(1H-pyrazol-4-yl)phenoxy]-3-fluoro-N-1,2,4-thiadiazol-5-ylbenzenesulfonamide]"
7,740 nM,"CCn1nc(C)cc1-c1ccc(Oc2ccc(S(=O)(=O)Nc3nccs3)cc2C#N)cc1 [Example 388, 3-cyano-4-[4-(1-ethyl-3-methyl-1H-pyrazol-5-yl)phenoxy]-N-1,3-thiazol-2-ylbenzenesulfonamide]"

# Further lines, the molecule ahead of its results:
row,Compound,IC50
1,"N#Cc1cc(S(=O)(=O)Nc2nccc(C(F)(F)F)n2)ccc1Oc1ccccc1-c1ccccc1 [Example 434, 4-(biphenyl-2-yloxy)-3-cyano-N-[4-(trifluoromethyl)pyrimidin-2-yl]benzenesulfonamide]",18000 nM
2,"O=S(=O)(Nc1cscn1)c1cc(F)c(Oc2ccc(Cl)cc2C2CNC2)cc1F [Example 604, 4-(2-azetidin-3-yl-4-chlorophenoxy)-2,5-difluoro-N-1,3-thiazol-4-ylbenzenesulfonamide]",820 nM
3,"Cn1nc(-c2ccc(Oc3ccc(S(=O)(=O)Nc4nccs4)cc3C#N)cc2)cc1C(F)(F)F [Example 371, 3-cyano-4-{4-[1-methyl-5-(trifluoromethyl)-1H-pyrazol-3-yl]phenoxy}-N-1,3-thiazol-2-ylbenzenesulfonamide]",1800 nM
4,"CCn1nc(-c2ccc(Oc3ccc(S(=O)(=O)Nc4nccs4)cc3C#N)cc2)cc1C1CC1 [Example 372, 3-cyano-4-[4-(5-cyclopropyl-1-ethyl-1H-pyrazol-3-yl)phenoxy]-N-1,3-thiazol-2-ylbenzenesulfonamide]",2600 nM
5,"Cc1scnc1NS(=O)(=O)c1ccc(Oc2ccccc2-c2ccccc2)c(C#N)c1 [Example 600, 4-(biphenyl-2-yloxy)-3-cyano-N-(5-methyl-1,3-thiazol-4-yl)benzenesulfonamide]",15000 nM
6,"N#Cc1cc(S(=O)(=O)Nc2nccs2)ccc1Oc1cccc(-c2cccc(N)n2)c1 [Example 639, 4-[3-(6-aminopyridin-2-yl)phenoxy]-3-cyano-N-1,3-thiazol-2-ylbenzenesulfonamide]",6900 nM
7,"Cn1nccc1-c1ccc(C#N)cc1Oc1cc(F)c(S(=O)(=O)Nc2ncc(Cl)s2)cc1F [Example 615, N-(5-chloro-1,3-thiazol-2-yl)-4-[5-cyano-2-(1-methyl-1H-pyrazol-5-yl)phenoxy]-2,5-difluorobenzenesulfonamide]",2000 nM
8,"CC(C)(C)n1ccc(-c2cc(F)ccc2Oc2cc(F)c(S(=O)(=O)Nc3cscn3)cc2Cl)n1 [Example 520, 4-[2-(1-tert-butyl-1H-pyrazol-3-yl)-4-fluorophenoxy]-5-chloro-2-fluoro-N-1,3-thiazol-4-ylbenzenesulfonamide]",>1000 nM
9,"O=S(=O)(Nc1cscn1)c1ccc(Oc2ccc(Cl)cc2-c2cn[nH]c2)cc1 [Example 672, 4-[4-chloro-2-(1H-pyrazol-4-yl)phenoxy]-N-1,3-thiazol-4-ylbenzenesulfonamide]",2500 nM

# Same assay, conditions: estimated IC50; hSCN9A HEK cells, PatchXpress platform; Examples 815-1040
row,IC50,Compound
1,18 nM,"N#Cc1cc(S(=O)(=O)Nc2nncs2)ccc1Oc1ccc(Cl)cc1-c1ccnc(N2CCOCC2)c1 [Example 899, 4-[4-chloro-2-(2-morpholin-4-ylpyridin-4-yl)phenoxy]-3-cyano-N-1,3,4-thiadiazol-2-ylbenzenesulfonamide]"
2,920 nM,"Cc1nnc(NS(=O)(=O)c2ccc(Oc3ccc(Cl)cc3-c3ccnn3C)c(C#N)c2)s1 [Example 888, 4-[4-chloro-2-(1-methyl-1H-pyrazol-5-yl)phenoxy]-3-cyano-N-(5-methyl-1,3,4-thiadiazol-2-yl)benzenesulfonamide]"
3,>10000 nM,"COc1nccnc1NS(=O)(=O)c1ccc(Oc2ccc(Cl)cc2-c2ccnn2C)c(C#N)c1 [Example 916, 4-[4-chloro-2-(1-methyl-1H-pyrazol-5-yl)phenoxy]-3-cyano-N-(3-methoxypyrazin-2-yl)benzenesulfonamide]"
4,25 nM,"N#Cc1cc(S(=O)(=O)Nc2ncns2)ccc1Oc1cc(Cl)c(F)cc1-c1ccnnc1 [Example 938, 4-(5-chloro-4-fluoro-2-pyridazin-4-ylphenoxy)-3-cyano-N-1,2,4-thiadiazol-5-ylbenzenesulfonamide]"
5,50 nM,"N#Cc1cc(S(=O)(=O)Nc2ncns2)ccc1Oc1ccc(Cl)cc1-c1cc(N2CCNCC2)ncn1 [Example 875, 4-[4-chloro-2-(6-piperazin-1-ylpyrimidin-4-yl)phenoxy]-3-cyano-N-1,2,4-thiadiazol-5-ylbenzenesulfonamide]"

# The remaining lines, values behind:
row,Compound,IC50
1,"O=S(=O)(Nc1nncs1)c1cc(Cl)c(Oc2ccc(Cl)cc2-c2ccnnc2)cc1F [Example 843, 5-chloro-4-(4-chloro-2-pyridazin-4-ylphenoxy)-2-fluoro-N-1,3,4-thiadiazol-2-ylbenzenesulfonamide]",34 nM
2,"N#Cc1cc(S(=O)(=O)Nc2cscn2)ccc1Oc1ccc(C(F)(F)F)cc1-c1ccnnc1 [Example 953, 3-cyano-4-[2-pyridazin-4-yl-4-(trifluoromethyl)phenoxy]-N-1,3-thiazol-4-ylbenzenesulfonamide]",110 nM
3,"CN1CC(n2nccc2-c2cc(Cl)ccc2Oc2cc(F)c(S(=O)(=O)Nc3nncs3)cc2Cl)C1 [Example 884, 5-chloro-4-{4-chloro-2-[1-(1-methylazetidin-3-yl)-1H-pyrazol-5-yl]phenoxy}-2-fluoro-N-1,3,4-thiadiazol-2-ylbenzenesulfonamide]",36 nM
4,"O=S(=O)(Nc1ncns1)c1cc(F)c(Oc2ccc(Cl)cc2-c2cnco2)cc1F [Example 970, 4-[4-chloro-2-(1,3-oxazol-5-yl)phenoxy]-2,5-difluoro-N-1,2,4-thiadiazol-5-ylbenzenesulfonamide]",17 nM
5,"Cc1n[nH]cc1-c1ccccc1Oc1ccc(S(=O)(=O)Nc2nccs2)cc1C(N)=O [Example 983, 2-[2-(3-methyl-1H-pyrazol-4-yl)phenoxy]-5-[(1,3-thiazol-2-ylamino)sulfonyl]benzamide]",2700 nM
6,"O=S(=O)(Nc1nncs1)c1cc(F)c(Oc2ccc(Cl)cc2-c2cn[nH]c2)cc1F [Example 821, 4-[4-chloro-2-(1H-pyrazol-4-yl)phenoxy]-2,5-difluoro-N-1,3,4-thiadiazol-2-ylbenzenesulfonamide]",100 nM
